Reference: ChEMBL document CHEMBL1909281, “FDA-approved drug labeling for the study of drug-induced liver injury” (Drug Discov Today, 2011)

System: Hepatotoxicity
Assay: FDA Liver Toxicity Knowledge Base Benchmark Dataset (LTKB-BD) drugs of most concern for DILI

Structure (SMILES) | LTKB_BD DILI severity score | LTKB_BD DILI severity score (Liver)
O=c1[nH]cnc2c1ncn2[C@H]1CC[C@@H](CO)O1 [DIDANOSINE] | 8 | 
CNCCC=C1c2ccccc2CCc2ccccc21 [NORTRIPTYLINE] |  | 8
COc1cc(C)c(/C=C/C(C)=C/C=C/C(C)=C/C(=O)O)c(C)c1C [ACITRETIN] | 5 | 
NC(=O)OCC(COC(N)=O)c1ccccc1 [FELBAMATE] | 7 | 
CCCCc1oc2ccccc2c1C(=O)c1cc(I)c(OCCN(CC)CC)c(I)c1 [AMIODARONE] | 8 | 
CC1=C(CC(=O)O)c2cc(F)ccc2/C1=C\c1ccc([S+](C)[O-])cc1 (stereo not drawn) | 8 | 
O=C(O)c1ccc(-n2nc(-c3ccccc3O)nc2-c2ccccc2O)cc1 [DEFERASIROX] | 7 | 
Nc1ccn([C@@H]2O[C@H](CO)[C@@H](O)[C@@H]2O)c(=O)n1 [CYTARABINE] |  | 3
CCC[C@@]1(CCc2ccccc2)CC(O)=C([C@H](CC)c2cccc(NS(=O)(=O)c3ccc(C(F)(F)F)cn3)c2)C(=O)O1 | 8 | 
Clc1ccccc1CN1CCc2sccc2C1 [TICLOPIDINE] |  | 4
Nc1ccn([C@@H]2CS[C@H](CO)O2)c(=O)n1 [LAMIVUDINE] | 8 | 
NC(=O)N1c2ccccc2C=Cc2ccccc21 [CARBAMAZEPINE] | 7 | 
NNC(=O)c1ccncc1 [ISONIAZID] | 8 | 
CC(=O)O[C@@]12CO[C@@H]1C[C@H](O)[C@@]1(C)C(=O)[C@H](O)C3=C(C)[C@@H](OC(=O)[C@H](O)[C@@H](NC(=O)OC(C)(C)C)c4ccccc4)C[C@@](O)([C@@H](OC(=O)c4ccccc4)[C@H]21)C3(C)C.O.O.O [DOCETAXEL] | 8 | 
CN(C/C=C/C#CC(C)(C)C)Cc1cccc2ccccc12 [TERBINAFINE] | 8 | 
CCN(CC)CCNC(=O)c1c(C)[nH]c(/C=C2\C(=O)Nc3ccc(F)cc32)c1C [SUNITINIB] | 8 | 
OC(Cn1cncn1)(Cn1cncn1)c1ccc(F)cc1F [FLUCONAZOLE] |  | 8
CC(C)(C)NC(=O)[C@@H]1CN(Cc2cccnc2)CCN1C[C@@H](O)C[C@@H](Cc1ccccc1)C(=O)N[C@H]1c2ccccc2C[C@H]1O.O | 8 | 
CO[C@H]1/C=C/O[C@@]2(C)Oc3c(C)c(O)c4c(O)c(c(/C=N/N5CCN(C)CC5)c(O)c4c3C2=O)NC(=O)/C(C)=C\C=C\[C@H](C)[C@H](O)[C@@H](C)[C@@H](O)[C@@H](C)[C@H](OC(C)=O)[C@@H]1C [RIFAMPIN] | 8 | 
Nc1nc(NC2CC2)c2ncn([C@H]3C=C[C@@H](CO)C3)c2n1 [ABACAVIR] | 8 | 
CC(c1cc2ccccc2s1)N(O)C(N)=O (stereo not drawn) [ZILEUTON] | 5 | 

Structure (SMILES) | LTKB_BD DILI severity score | LTKB_BD DILI severity score (Liver)
C[C@H]1O[C@H](O[C@H]2[C@H](O)[C@@H](O)[C@@H](O[C@H]3[C@H](O)[C@@H](O)C(O)O[C@@H]3CO)O[C@@H]2CO)[C@H](O)[C@@H](O)[C@@H]1N[C@H]1C=C(CO)[C@@H](O)[C@H](O)[C@H]1O (stereo partly drawn) [ACARBOSE] | 5 | 
Cc1oncc1C(=O)Nc1ccc(C(F)(F)F)cc1 [LEFLUNOMIDE] | 8 | 
C[C@]12C/C(=C/O)C(=O)C[C@@H]1CC[C@@H]1[C@@H]2CC[C@@]2(C)[C@H]1CC[C@]2(C)O [OXYMETHOLONE] | 8 | 
CC[C@H]1OC(=O)[C@H](C)[C@@H](O[C@H]2C[C@@](C)(OC)[C@@H](O)[C@H](C)O2)[C@H](C)[C@@H](O[C@@H]2O[C@H](C)C[C@H](N(C)C)[C@H]2O)[C@](C)(O)C[C@@H](C)C(=O)[C@H](C)[C@@H](O)[C@]1(C)O [ERYTHROMYCIN] | 5 | 
Cc1cn([C@H]2C=C[C@@H](CO)O2)c(=O)[nH]c1=O [STAVUDINE] | 8 | 
CCCCCCCCCCC[C@@H](C[C@@H]1OC(=O)[C@H]1CCCCCC)OC(=O)[C@H](CC(C)C)NC=O [ORLISTAT] | 8 | 
Nc1ccc(C(=O)O)c(O)c1 [AMINOSALICYLIC ACID] | 5 | 
CC1=NN(c2ccc(C)c(C)c2)C(=O)/C1=N\Nc1cccc(-c2cccc(C(=O)O)c2)c1O [ELTROMBOPAG] |  | 6
COc1ccccc1Oc1c(NS(=O)(=O)c2ccc(C(C)(C)C)cc2)nc(-c2ncccn2)nc1OCCO [BOSENTAN] | 7 | 
CN(N=O)C(=O)N[C@@H](C=O)[C@@H](O)[C@H](O)[C@H](O)CO [STREPTOZOCIN] | 3 | 
O=C1CC[C@@]2(O)[C@H]3Cc4ccc(O)c5c4[C@@]2(CCN3CC2CC2)[C@H]1O5 [NALTREXONE] | 3 | 
C#C[C@]1(O)CC[C@H]2[C@@H]3CCC4=Cc5oncc5C[C@]4(C)[C@H]3CC[C@@]21C [DANAZOL] | 8 | 
C[C@H](Cn1cnc2c(N)ncnc21)OCP(=O)(O)O [TENOFOVIR ANHYDROUS] | 8 | 
Nc1c2c(nc3ccccc13)CCCC2 [TACRINE] |  | 7
Sc1ncnc2nc[nH]c12 [MERCAPTOPURINE ANHYDROUS] |  | 8
C[C@]12COC(=O)C[C@@H]1CC[C@@H]1[C@@H]2CC[C@@]2(C)[C@H]1CC[C@]2(C)O [OXANDROLONE] | 8 | 
Nc1ccn([C@H]2CC[C@@H](CO)O2)c(=O)n1 [ZALCITABINE] |  | 8
Cc1cc(C(=O)NNCc2ccccc2)no1 [ISOCARBOXAZID] | 5 | 
CC(CCc1ccccc1)NCC(O)c1ccc(O)c(C(N)=O)c1 (stereo not drawn) [LABETALOL] | 8 | 
CN(Cc1cnc2nc(N)nc(N)c2n1)c1ccc(C(=O)N[C@@H](CCC(=O)O)C(=O)O)cc1 [METHOTREXATE] | 3 | 
NC(=O)NO [HYDROXYUREA] | 8 | 

Structure (SMILES) | LTKB_BD DILI severity score | LTKB_BD DILI severity score (Liver)
Cc1cc(NS(=O)(=O)c2ccc(N)cc2)no1 [SULFAMETHOXAZOLE] | 7 | 
COC(c1ccccc1)(c1ccccc1)[C@H](Oc1nc(C)cc(C)n1)C(=O)O [AMBRISENTAN] | 5 | 
CCc1cccc2c3c([nH]c12)C(CC)(CC(=O)O)OCC3 (stereo not drawn) [ETODOLAC] | 8 | 
C[C@](N)(Cc1ccc(O)c(O)c1)C(=O)O [METHYLDOPA] | 8 | 
CCc1nn(CCCN2CCN(c3cccc(Cl)c3)CC2)c(=O)n1CCOc1ccccc1 [NEFAZODONE] | 8 | 
CC[C@@H](CO)NCCN[C@@H](CC)CO [ETHAMBUTOL] | 8 | 
COc1cc(C(=O)NS(=O)(=O)c2ccccc2C)ccc1Cc1cn(C)c2ccc(NC(=O)OC3CCCC3)cc12 [ZAFIRLUKAST] | 8 | 
C[C@@](Cc1ccc(O)c(O)c1)(NN)C(=O)O.O [CARBIDOPA] | 4 | 
Cc1cn([C@H]2C[C@H](N=[N+]=[N-])[C@@H](CO)O2)c(=O)[nH]c1=O [ZIDOVUDINE] | 8 | 
COc1ccc(CCN(C)CCCC(C#N)(c2ccc(OC)c(OC)c2)C(C)C)cc1OC (stereo not drawn) | 4 | 
O=C1CN(/N=C/c2ccc(-c3ccc([N+](=O)[O-])cc3)o2)C(O)=N1 [DANTROLENE] | 8 | 
CC(C(=O)O)c1cccc(Oc2ccccc2)c1 (stereo not drawn) [FENOPROFEN] | 8 | 
CS(=O)(=O)CCNCc1ccc(-c2ccc3ncnc(Nc4ccc(OCc5cccc(F)c5)c(Cl)c4)c3c2)o1 [LAPATINIB] | 8 | 
CCCc1cc(=O)[nH]c(=S)[nH]1 [PROPYLTHIOURACIL] |  | 8
Cc1ccnc2c1NC(=O)c1cccnc1N2C1CC1 [NEVIRAPINE] | 8 | 
Cc1ccc(C(=O)c2cc(O)c(O)c([N+](=O)[O-])c2)cc1 [TOLCAPONE] |  | 8
O=C(O)c1cn(C2CC2)c2cc(N3CCNCC3)c(F)cc2c1=O [CIPROFLOXACIN] | 7 | 
CC(O)(CS(=O)(=O)c1ccc(F)cc1)C(=O)Nc1ccc(C#N)c(C(F)(F)F)c1 (stereo not drawn) [BICALUTAMIDE] | 8 | 
CN(C)/N=N/c1[nH]cnc1C(N)=O [DACARBAZINE] | 6 | 
CC(C)C(=O)Nc1ccc([N+](=O)[O-])c(C(F)(F)F)c1 [FLUTAMIDE] | 8 | 
Cc1nnc(C(C)C)n1[C@@H]1C[C@H]2CC[C@@H](C1)N2CC[C@H](NC(=O)C1CCC(F)(F)CC1)c1ccccc1 [MARAVIROC] | 3 | 
